Values of other authors in US20240358692A1, “TREATMENT OF SCLERODERMA” (Aisa Pharma, Inc., priority 2023, published 2024).

Settings: oral dosing; cited from earlier work

CCOC(=O)C1=C(COCCN)NC(C)=C(C(=O)OC)C1c1ccccc1Cl (stereo not shown) [amlodipine]
time to achieve maximal plasma concentrations (Tmax): 10 h
